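Cells were grown in 96-well plates and exposed to each compound for 48 hours at five concentrations; endpoints were interpolated linearly between bracketing concentrations, or set to the highest concentration if not reached. The concentration for 50% growth inhibition is given as GI50. Definition used: TGI = concentration required for complete inhibition of growth.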
How the values were obtained:
Assay in all cases: inhibition of tumour cell growth, NCI panel, 48 h
A549 NSCLC = test system: A549 NSCLC
HCC-2998 colon = test system: HCC-2998 colon
HT29 colon = test system: HT29 colon
KM12 colon = test system: KM12 colon
OVCAR-5 ovarian = test system: OVCAR-5 ovarian
786-0 renal = test system: 786-0 renal
A498 renal = test system: A498 renal
ACHN renal = test system: ACHN renal
BT-549 breast = test system: BT-549 breast
CAKI-1 renal = test system: CAKI-1 renal
CCRF-CEM leukemia = test system: CCRF-CEM leukemia
COLO 205 colon = test system: COLO 205 colon
DU-145 prostate = test system: DU-145 prostate
EKVX NSCLC = test system: EKVX NSCLC
HCT-116 colon = test system: HCT-116 colon
HCT-15 colon = test system: HCT-15 colon
HOP-62 NSCLC = test system: HOP-62 NSCLC
HOP-92 NSCLC = test system: HOP-92 NSCLC
HS 578T breast = test system: HS 578T breast
IGROV1 ovarian = test system: IGROV1 ovarian
K-562 leukemia = test system: K-562 leukemia
LOX IMVI melanoma = test system: LOX IMVI melanoma
M14 melanoma = test system: M14 melanoma
MALME-3M melanoma = test system: MALME-3M melanoma
MCF7 breast = test system: MCF7 breast
MDA-MB-231 breast = test system: MDA-MB-231 breast
MDA-MB-435 = test system: MDA-MB-435
MOLT-4 leukemia = test system: MOLT-4 leukemia
NCI-H226 lung = test system: NCI-H226 lung
NCI-H23 lung = test system: NCI-H23 lung
NCI-H460 lung = test system: NCI-H460 lung
NCI-H522 lung = test system: NCI-H522 lung
NCI/ADR-RES ovarian = test system: NCI/ADR-RES ovarian
OVCAR-3 ovarian = test system: OVCAR-3 ovarian
OVCAR-4 ovarian = test system: OVCAR-4 ovarian
OVCAR-8 ovarian = test system: OVCAR-8 ovarian
PC-3 prostate = test system: PC-3 prostate
RPMI-8226 leukemia = test system: RPMI-8226 leukemia
RXF 393 renal = test system: RXF 393 renal
SF-268 CNS = test system: SF-268 CNS
SF-295 CNS = test system: SF-295 CNS
SF-539 CNS = test system: SF-539 CNS
SK-MEL-2 melanoma = test system: SK-MEL-2 melanoma
SK-MEL-28 melanoma = test system: SK-MEL-28 melanoma
SK-MEL-5 melanoma = test system: SK-MEL-5 melanoma
SK-OV-3 ovarian = test system: SK-OV-3 ovarian
SN12C renal = test system: SN12C renal
SNB-19 CNS = test system: SNB-19 CNS
SNB-75 CNS = test system: SNB-75 CNS
SR leukemia = test system: SR leukemia
SW-620 colon = test system: SW-620 colon
T-47D breast = test system: T-47D breast
TK-10 renal = test system: TK-10 renal
U251 CNS = test system: U251 CNS
UACC-257 melanoma = test system: UACC-257 melanoma
UACC-62 melanoma = test system: UACC-62 melanoma
UO-31 renal = test system: UO-31 renal
HL-60(TB) leukemia = test system: HL-60(TB) leukemia

c1ccc2c(c1)ccc1c3ccccc3c(NCCCCN3CCCCC3)cc21
GI50 (A549 NSCLC): 3.1 µM
TGI (A549 NSCLC): > 100 µM
GI50 (HCC-2998 colon): 1.75 µM
TGI (HCC-2998 colon): 3.36 µM
GI50 (HT29 colon): 3.5 µM
TGI (HT29 colon): > 100 µM
GI50 (KM12 colon): 1.75 µM
TGI (KM12 colon): 3.25 µM
GI50 (OVCAR-5 ovarian): 1.69 µM
TGI (OVCAR-5 ovarian): 3.2 µM

C[C@]12CCC3[C@@H](C[C@@H]4SC(Nc5ccccc5)=N[C@@]45CC(=O)CC[C@]35C)[C@@H]1CCC2=O (stereo not given in full)
GI50 (786-0 renal): 3.02 µM
TGI (786-0 renal): 13.1 µM
GI50 (A498 renal): 28.8 µM
TGI (A498 renal): > 100 µM
GI50 (A549 NSCLC): 26.4 µM
TGI (A549 NSCLC): > 100 µM
GI50 (ACHN renal): 7.81 µM
TGI (ACHN renal): 29.5 µM
GI50 (BT-549 breast): 4.58 µM
TGI (BT-549 breast): 38.9 µM
GI50 (CAKI-1 renal): 13 µM
TGI (CAKI-1 renal): 30.2 µM
GI50 (CCRF-CEM leukemia): 2.84 µM
TGI (CCRF-CEM leukemia): > 100 µM
GI50 (COLO 205 colon): 12.3 µM
TGI (COLO 205 colon): 37.4 µM
GI50 (DU-145 prostate): 4.34 µM
TGI (DU-145 prostate): 40.9 µM
GI50 (EKVX NSCLC): 38.8 µM
TGI (EKVX NSCLC): > 100 µM
GI50 (HCC-2998 colon): 18.2 µM
TGI (HCC-2998 colon): 44.8 µM
GI50 (HCT-116 colon): 1.91 µM
TGI (HCT-116 colon): 4.16 µM
GI50 (HCT-15 colon): 2.53 µM
TGI (HCT-15 colon): 9.71 µM
GI50 (HOP-62 NSCLC): 22.4 µM
TGI (HOP-62 NSCLC): > 100 µM
GI50 (HOP-92 NSCLC): 18.7 µM
TGI (HOP-92 NSCLC): 67.9 µM
GI50 (HS 578T breast): 12 µM
TGI (HS 578T breast): > 100 µM
GI50 (HT29 colon): 3.9 µM
TGI (HT29 colon): 17.6 µM
GI50 (IGROV1 ovarian): 8.21 µM
TGI (IGROV1 ovarian): > 100 µM
GI50 (K-562 leukemia): 2.79 µM
TGI (K-562 leukemia): > 100 µM
GI50 (KM12 colon): 8.27 µM
TGI (KM12 colon): 29.3 µM
GI50 (LOX IMVI melanoma): 3.22 µM
TGI (LOX IMVI melanoma): 10.8 µM
GI50 (M14 melanoma): 7.88 µM
TGI (M14 melanoma): 50.9 µM
GI50 (MALME-3M melanoma): 21.2 µM
TGI (MALME-3M melanoma): > 100 µM
GI50 (MCF7 breast): 3.58 µM
TGI (MCF7 breast): 32.8 µM
GI50 (MDA-MB-231 breast): 13.4 µM
TGI (MDA-MB-231 breast): > 100 µM
GI50 (MDA-MB-435): 3.48 µM
TGI (MDA-MB-435): > 100 µM
GI50 (MOLT-4 leukemia): 2.84 µM
TGI (MOLT-4 leukemia): > 100 µM
GI50 (NCI-H226 lung): 7.36 µM
TGI (NCI-H226 lung): 45 µM
GI50 (NCI-H23 lung): 18.1 µM
TGI (NCI-H23 lung): > 100 µM
GI50 (NCI-H460 lung): 4.65 µM
TGI (NCI-H460 lung): 27.9 µM
GI50 (NCI-H522 lung): 6.6 µM
TGI (NCI-H522 lung): 23.6 µM
GI50 (NCI/ADR-RES ovarian): 6.34 µM
TGI (NCI/ADR-RES ovarian): > 100 µM
GI50 (OVCAR-3 ovarian): 4.41 µM
TGI (OVCAR-3 ovarian): 50.8 µM
GI50 (OVCAR-4 ovarian): 18.9 µM
TGI (OVCAR-4 ovarian): > 100 µM
GI50 (OVCAR-5 ovarian): 24.5 µM
TGI (OVCAR-5 ovarian): > 100 µM
GI50 (OVCAR-8 ovarian): 7.61 µM
TGI (OVCAR-8 ovarian): > 100 µM
GI50 (PC-3 prostate): 5.52 µM
TGI (PC-3 prostate): 63.7 µM
GI50 (RPMI-8226 leukemia): 2.73 µM
TGI (RPMI-8226 leukemia): 7.44 µM
GI50 (RXF 393 renal): 3.18 µM
TGI (RXF 393 renal): 14.2 µM
GI50 (SF-268 CNS): 5.95 µM
TGI (SF-268 CNS): 70 µM
GI50 (SF-295 CNS): 8.98 µM
TGI (SF-295 CNS): > 100 µM
GI50 (SF-539 CNS): 3.04 µM
TGI (SF-539 CNS): 13.3 µM
GI50 (SK-MEL-2 melanoma): 17.1 µM
TGI (SK-MEL-2 melanoma): 60.8 µM
GI50 (SK-MEL-28 melanoma): 20.5 µM
TGI (SK-MEL-28 melanoma): > 100 µM
GI50 (SK-MEL-5 melanoma): 10.2 µM
TGI (SK-MEL-5 melanoma): 26 µM
GI50 (SK-OV-3 ovarian): 34 µM
TGI (SK-OV-3 ovarian): > 100 µM
GI50 (SN12C renal): 3.81 µM
TGI (SN12C renal): 25.3 µM
GI50 (SNB-19 CNS): 12.9 µM
TGI (SNB-19 CNS): > 100 µM
GI50 (SNB-75 CNS): 5.4 µM
TGI (SNB-75 CNS): 72.5 µM
GI50 (SR leukemia): 2.58 µM
TGI (SR leukemia): > 100 µM
GI50 (SW-620 colon): 3.38 µM
TGI (SW-620 colon): 15.6 µM
GI50 (T-47D breast): 3.5 µM
TGI (T-47D breast): > 100 µM
GI50 (TK-10 renal): 7.46 µM
TGI (TK-10 renal): 54.8 µM
GI50 (U251 CNS): 4.41 µM
TGI (U251 CNS): 19.3 µM
GI50 (UACC-257 melanoma): 23.8 µM
TGI (UACC-257 melanoma): 94.5 µM
GI50 (UACC-62 melanoma): 9.54 µM
TGI (UACC-62 melanoma): 29.6 µM
GI50 (UO-31 renal): 5.26 µM
TGI (UO-31 renal): 19.4 µM

O=C(O)c1ccc2c(c1)Cc1cc([N+](=O)[O-])ccc1-2
TGI (786-0 renal): > 100 µM
TGI (A498 renal): > 100 µM
TGI (A549 NSCLC): > 100 µM
TGI (ACHN renal): > 100 µM
TGI (BT-549 breast): > 100 µM
TGI (CAKI-1 renal): > 100 µM
TGI (CCRF-CEM leukemia): > 100 µM
TGI (COLO 205 colon): > 100 µM
TGI (DU-145 prostate): > 100 µM
TGI (EKVX NSCLC): > 100 µM
TGI (HCC-2998 colon): > 100 µM
TGI (HCT-116 colon): > 100 µM
TGI (HCT-15 colon): > 100 µM
TGI (HL-60(TB) leukemia): > 100 µM
TGI (HOP-62 NSCLC): > 100 µM
TGI (HOP-92 NSCLC): > 100 µM
TGI (HS 578T breast): > 100 µM
TGI (HT29 colon): > 100 µM
TGI (IGROV1 ovarian): > 100 µM
TGI (K-562 leukemia): > 100 µM
TGI (KM12 colon): > 100 µM
TGI (LOX IMVI melanoma): > 100 µM
TGI (M14 melanoma): > 100 µM
TGI (MALME-3M melanoma): > 100 µM
TGI (MCF7 breast): > 100 µM
TGI (MDA-MB-231 breast): > 100 µM
TGI (MDA-MB-435): > 100 µM
TGI (MOLT-4 leukemia): > 100 µM
TGI (NCI-H226 lung): > 100 µM
TGI (NCI-H23 lung): > 100 µM
TGI (NCI-H460 lung): > 100 µM
TGI (NCI-H522 lung): > 100 µM
TGI (NCI/ADR-RES ovarian): > 100 µM
TGI (OVCAR-3 ovarian): > 100 µM
TGI (OVCAR-4 ovarian): > 100 µM
TGI (OVCAR-5 ovarian): > 100 µM
TGI (OVCAR-8 ovarian): > 100 µM
TGI (RPMI-8226 leukemia): 77.4 µM
TGI (SF-268 CNS): > 100 µM
TGI (SF-295 CNS): > 100 µM
TGI (SF-539 CNS): > 100 µM
TGI (SK-MEL-2 melanoma): > 100 µM
TGI (SK-MEL-28 melanoma): > 100 µM
TGI (SK-MEL-5 melanoma): > 100 µM
TGI (SK-OV-3 ovarian): > 100 µM
TGI (SN12C renal): > 100 µM
TGI (SNB-19 CNS): > 100 µM
TGI (SNB-75 CNS): > 100 µM
TGI (SR leukemia): > 100 µM
TGI (SW-620 colon): > 100 µM
TGI (T-47D breast): > 100 µM
TGI (TK-10 renal): > 100 µM
TGI (U251 CNS): > 100 µM
TGI (UACC-257 melanoma): > 100 µM
TGI (UACC-62 melanoma): > 100 µM
TGI (UO-31 renal): > 100 µM

Source: PubChem BioAssay (NCI)
